In one experiment the target is mouse UAE (Mus musculus (Mouse), UniProt Q02053). Description: Ubiquitin Activating Enzyme (UAE) HTRF assay, mouse UAE.
Another experiment addresses recombinant human UAE (Homo sapiens (Human), UniProt P22314). Briefly: Ubiquitin Activating Enzyme (UAE) HTRF assay, human UAE.

Drawing on US9663525B2, “Pyrazolopyrimidinyl inhibitors of ubiquitin-activating enzyme” (Millennium Pharmaceuticals, Inc., priority 2012, dated 2017), this text covers IC50 for 25 molecules.

Where two headings read alike, the source gives them in different places. Where only a bound is given, the exact number is not on record here.

Chain of mouse UAE (Q02053 whole entry): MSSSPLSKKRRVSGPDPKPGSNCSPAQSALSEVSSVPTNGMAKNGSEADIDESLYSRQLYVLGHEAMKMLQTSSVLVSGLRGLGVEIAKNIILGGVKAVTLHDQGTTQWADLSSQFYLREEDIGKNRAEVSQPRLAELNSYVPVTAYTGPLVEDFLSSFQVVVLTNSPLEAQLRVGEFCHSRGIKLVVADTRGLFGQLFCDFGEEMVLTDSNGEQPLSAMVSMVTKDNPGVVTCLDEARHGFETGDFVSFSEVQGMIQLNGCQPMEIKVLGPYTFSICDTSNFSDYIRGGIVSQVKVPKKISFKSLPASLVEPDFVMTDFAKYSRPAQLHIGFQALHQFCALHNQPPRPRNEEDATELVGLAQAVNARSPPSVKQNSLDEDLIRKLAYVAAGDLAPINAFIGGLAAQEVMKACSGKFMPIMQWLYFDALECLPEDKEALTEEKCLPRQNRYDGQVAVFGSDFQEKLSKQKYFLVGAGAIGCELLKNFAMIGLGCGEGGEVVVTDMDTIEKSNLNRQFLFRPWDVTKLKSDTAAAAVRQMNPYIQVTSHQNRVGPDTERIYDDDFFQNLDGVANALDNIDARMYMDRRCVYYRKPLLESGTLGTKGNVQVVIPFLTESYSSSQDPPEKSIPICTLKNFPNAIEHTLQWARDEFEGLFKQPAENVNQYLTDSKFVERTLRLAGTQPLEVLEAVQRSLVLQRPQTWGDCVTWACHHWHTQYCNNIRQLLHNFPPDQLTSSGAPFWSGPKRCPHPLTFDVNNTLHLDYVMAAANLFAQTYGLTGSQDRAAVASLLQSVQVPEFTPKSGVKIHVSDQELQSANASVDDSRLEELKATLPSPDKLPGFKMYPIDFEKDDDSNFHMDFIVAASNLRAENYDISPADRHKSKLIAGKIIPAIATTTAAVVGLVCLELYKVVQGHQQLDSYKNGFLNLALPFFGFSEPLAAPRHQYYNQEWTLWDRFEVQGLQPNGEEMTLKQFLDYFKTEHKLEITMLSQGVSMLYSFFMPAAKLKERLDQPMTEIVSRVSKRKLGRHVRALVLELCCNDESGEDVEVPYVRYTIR
Chain of recombinant human UAE (P22314 whole entry): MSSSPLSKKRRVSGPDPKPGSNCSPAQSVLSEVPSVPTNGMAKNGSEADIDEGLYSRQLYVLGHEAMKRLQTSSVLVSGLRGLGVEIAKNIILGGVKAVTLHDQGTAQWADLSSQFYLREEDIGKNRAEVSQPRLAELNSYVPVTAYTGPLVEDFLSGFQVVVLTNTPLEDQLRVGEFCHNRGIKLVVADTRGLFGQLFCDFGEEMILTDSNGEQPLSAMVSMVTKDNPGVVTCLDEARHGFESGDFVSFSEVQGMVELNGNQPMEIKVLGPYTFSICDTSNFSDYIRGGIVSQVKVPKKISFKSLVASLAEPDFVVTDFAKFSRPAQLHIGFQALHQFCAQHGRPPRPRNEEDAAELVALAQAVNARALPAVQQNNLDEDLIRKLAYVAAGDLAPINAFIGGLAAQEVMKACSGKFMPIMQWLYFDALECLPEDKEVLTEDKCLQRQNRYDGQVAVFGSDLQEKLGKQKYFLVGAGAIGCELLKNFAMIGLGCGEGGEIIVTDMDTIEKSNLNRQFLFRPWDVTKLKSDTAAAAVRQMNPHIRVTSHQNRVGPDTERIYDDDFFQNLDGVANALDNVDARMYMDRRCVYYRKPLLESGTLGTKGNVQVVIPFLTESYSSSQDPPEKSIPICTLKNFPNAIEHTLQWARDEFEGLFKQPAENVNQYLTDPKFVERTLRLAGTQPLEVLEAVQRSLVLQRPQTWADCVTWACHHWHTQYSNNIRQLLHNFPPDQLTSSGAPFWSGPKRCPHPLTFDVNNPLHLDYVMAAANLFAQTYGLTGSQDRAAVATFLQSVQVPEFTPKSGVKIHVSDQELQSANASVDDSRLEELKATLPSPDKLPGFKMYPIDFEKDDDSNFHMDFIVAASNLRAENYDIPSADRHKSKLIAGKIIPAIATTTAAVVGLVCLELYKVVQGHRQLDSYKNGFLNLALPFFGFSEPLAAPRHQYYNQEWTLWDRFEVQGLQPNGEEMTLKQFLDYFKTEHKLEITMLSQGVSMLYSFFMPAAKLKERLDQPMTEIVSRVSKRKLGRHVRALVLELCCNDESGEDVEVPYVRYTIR
Protocol for mouse UAE: (§1) After incubation for 120 minutes, quantification of the FRET is performed on the Pherostar (BMG).
(§2) For compounds whose values are marked with an asterisk (*), mouse UAE was used. For all other compounds, human UAE was used.
Protocol for recombinant human UAE: as §1, §2

In the case of `NS(=O)(=O)OC[C@H]1C[C@@H](Nc2ccnc3cc(-c4ccccc4)nn23)[C@H](O)[C@@H]1O` (racemic) [Compound I-001, (rac)-((1R,2R,3S,4R)-2,3-dihydroxy-4-(2-phenylpyrazolo[1,5-a]pyrimidin-7-ylamino)cyclopentyl)methyl rel-sulfamate], the IC50 (usually the concentration at which inhibition is half-maximal) against mouse UAE fell in the range of 10 to 100 nM.

Molecule `NS(=O)(=O)OC[C@H]1C[C@@H](Nc2ccnc3cc(-c4cccc5ccccc45)nn23)[C@H](O)[C@@H]1O` (racemic) [Compound I-002, (rac)-((1R,2R,3S,4R)-2,3-dihydroxy-4-{[2-(1-naphthyl)pyrazolo[1,5-a]-pyrimidin-7-yl]amino}cyclopentyl)methyl rel-sulfamate] had an IC50 against mouse UAE of less than 10 nM.

`NS(=O)(=O)OC[C@H]1C[C@@H](Nc2ccnc3cc(-c4cccc(Cl)c4)nn23)[C@H](O)[C@@H]1O` (racemic) [Compound I-005, (rac)-((1R,2R,3S,4R)-4-((2-(3-Chlorophenyl)pyrazolo[1,5-a]pyrimidin-7-yl)amino)-2,3-dihydroxycyclopentyl)methyl rel-sulfamate] showed an IC50 at mouse UAE of less than 10 nM.

Consider `CCc1ccc2sc(-c3cc4nccc(N[C@@H]5C[C@H](COS(N)(=O)=O)[C@@H](O)[C@H]5O)n4n3)cc2c1` (racemic) [Compound I-095, (rac)-((1R,2R,3S,4R)-4-(2-(5-ethylbenzo[b]thiophen-2-yl)pyrazolo[1,5-a]pyrimidin-7-ylamino)-2,3-dihydroxycyclopentyl)methyl rel-sulfamate], for which, on recombinant human UAE, the IC50 lay in the range of 10 to 100 nM.

As for `NS(=O)(=O)OC[C@H]1C[C@@H](Nc2ccnc3cc(-c4cncc(-c5ccccc5)n4)nn23)[C@H](O)[C@@H]1O` (racemic) [Compound I-121, (rac)-((1R,2R,3S,4R)-2,3-dihydroxy-4-{[2-(6-phenylpyrazin-2-yl)pyrazolo[1,5-a]pyrimidin-7-yl]amino}cyclopentyl)methyl rel-sulfamate], at recombinant human UAE, the IC50 is less than 10 nM.

As to `Cn1cc(-c2cccc(-c3cc4nccc(N[C@@H]5C[C@H](COS(N)(=O)=O)[C@@H](O)[C@H]5O)n4n3)c2)cn1` (racemic) [Compound I-122, (rac)-[(1R,2R,3S,4R)-2,3-dihydroxy-4-({2-[3-(1-methyl-1H-pyrazol-4-yl)phenyl]pyrazolo[1,5-a]pyrimidin-7-yl}amino)cyclopentyl]methyl rel-sulfamate], on recombinant human UAE, the IC50 is less than 10 nM.

Turning to `Cc1cc(N[C@@H]2C[C@H](COS(N)(=O)=O)[C@@H](O)[C@H]2O)n2nc(-c3ccccc3)cc2n1` (relative stereo) [Compound I-004, (rac)-{(1R,2R,3S,4R)-2,3-dihydroxy-4-[(5-methyl-2-phenylpyrazolo[1,5-a]pyrimidin-7-yl)amino]cyclopentyl}methyl rel-sulfamate], the IC50 at recombinant human UAE is 100 to 1000 nM.

With `NS(=O)(=O)OC[C@H]1C[C@@H](Nc2cc(Cl)nc3cc(-c4ccccc4)nn23)[C@H](O)[C@@H]1O` (relative stereo) [Compound I-006, (rac)-{(1R,2R,3S,4R)-4-[(5-chloro-2-phenylpyrazolo[1,5-a]pyrimidin-7-yl)amino]-2,3-dihydroxycyclopentyl}methyl rel-sulfamate], the IC50 on recombinant human UAE is 100 to 1000 nM.

Regarding `Cc1cnc2cc(-c3ccccc3)nn2c1N[C@@H]1C[C@H](COS(N)(=O)=O)[C@@H](O)[C@H]1O` (relative stereo) [Compound I-089, (rac)-{(1R,2R,3S,4R)-2,3-dihydroxy-4-[(6-methyl-2-phenylpyrazolo[1,5-a]pyrimidin-7-yl)amino]cyclopentyl}methyl rel-sulfamate], the IC50 at recombinant human UAE fell in the range of 100 to 1000 nM.

Turning to `COC(=O)c1ccc2c(-c3cc4nccc(N[C@@H]5C[C@H](COS(N)(=O)=O)[C@@H](O)[C@H]5O)n4n3)cccc2c1` (relative stereo) [Compound I-096, (rac)-methyl rel-5-[7-({(1R,2S,3R,4R)-2,3-dihydroxy-4-[(sulfamoyloxy)methyl]cyclopentyl}amino)pyrazolo[1,5-a]pyrimidin-2-yl]-2-naphthoate], the IC50 on recombinant human UAE is less than 10 nM.

Turning to `CC(CO)(CCl)c1cccc(-c2cc3nccc(N[C@@H]4C[C@H](COS(N)(=O)=O)[C@@H](O)[C@H]4O)n3n2)c1` (relative stereo) [Compound I-123, (rac)-{(1R,2R,3S,4R)-4-[(2-{3-[2-chloro-1-(hydroxymethyl)-1-methylethyl]phenyl}pyrazolo[1,5-a]pyrimidin-7-yl)amino]-2,3-dihydroxycyclopentyl}methyl rel-sulfamate], the IC50 on recombinant human UAE is less than 10 nM.

For the molecule `NS(=O)(=O)OC[C@H]1C[C@@H](Nc2ccnc3cc(-c4cccc5ccccc45)nn23)[C@H](O)[C@@H]1O` [Compound I-098, (s.e.)-((1R,2R,3S,4R)-2,3-dihydroxy-4-{[2-(1-naphthyl)pyrazolo[1,5-a]pyrimidin-7-yl]amino}cyclopentyl)methyl sulfamate], the IC50 at recombinant human UAE (human UAE) was less than 10 nM.

As for `COc1ccc(OC(F)(F)F)cc1-c1cc2nccc(N[C@@H]3C[C@H](COS(N)(=O)=O)[C@@H](O)[C@H]3O)n2n1` [Compound I-102, (s.e)-[(1R,2R,3S,4R)-2,3-dihydroxy-4-({2-[2-methoxy-5-(trifluoromethoxy)-phenyl]pyrazolo[1,5-a]pyrimidin-7-yl}amino)cyclopentyl]methyl sulfamate], on recombinant human UAE (human UAE), the IC50 is less than 10 nM.

Consider `NS(=O)(=O)OC[C@H]1C[C@@H](Nc2ccnc3cc(-c4cccc5c4oc4ccccc45)nn23)[C@H](O)[C@@H]1O` [Compound I-103, (s.e.)-((1R,2R,3S,4R)-4-(2-(dibenzo[b,d]furan-4-yl)pyrazolo[1,5-a]pyrimidin-7-ylamino)-2,3-dihydroxycyclopentyl)methyl sulfamate], for which the IC50 at recombinant human UAE (human UAE) was less than 10 nM.

With `COc1ccc2ccccc2c1-c1cc2nccc(N[C@@H]3C[C@H](COS(N)(=O)=O)[C@@H](O)[C@H]3O)n2n1` [Compound I-104, (s.e.)-((1R,2R,3S,4R)-2,3-dihydroxy-4-(2-(2-methoxynaphthalen-1-yl)pyrazolo[1,5-a]pyrimidin-7-ylamino)cyclopentyl)methyl sulfamate], the IC50 on recombinant human UAE (human UAE) is less than 10 nM.

Take `COc1ccc(-c2cc3nccc(N[C@@H]4C[C@H](COS(N)(=O)=O)[C@@H](O)[C@H]4O)n3n2)c2ccccc12` [Compound I-106, (s.e.)-((1R,2R,3S,4R)-2,3-dihydroxy-4-(2-(4-methoxynaphthalen-1-yl)pyrazolo[1,5-a]pyrimidin-7-ylamino)cyclopentyl)methyl sulfamate]: the IC50 on recombinant human UAE (human UAE) is less than 10 nM.

Turning to `CN(C)c1ccc(-c2cc3nccc(N[C@@H]4C[C@H](COS(N)(=O)=O)[C@@H](O)[C@H]4O)n3n2)c2ccccc12` [Compound I-107, (s.e.)-((1R,2R,3S,4R)-4-(2-(4-(dimethylamino)naphthalen-1-yl)pyrazolo[1,5-a]pyrimidin-7-ylamino)-2,3-dihydroxycyclopentyl)methyl sulfamate], on recombinant human UAE (human UAE), the concentration for half-maximal inhibition (IC50) was less than 10 nM.

With `CC(C)Oc1ccc2ccccc2c1-c1cc2nccc(N[C@@H]3C[C@H](COS(N)(=O)=O)[C@@H](O)[C@H]3O)n2n1` [Compound I-109, (s.e.)-((1R,2R,3S,4R)-2,3-dihydroxy-4-(2-(2-isopropoxynaphthalen-1-yl)pyrazolo[1,5-a]pyrimidin-7-ylamino)cyclopentyl)methyl sulfamate], the IC50 at recombinant human UAE (human UAE) is less than 10 nM.

Regarding `NS(=O)(=O)OC[C@H]1C[C@@H](Nc2ccnc3cc(-c4c(OC(F)F)ccc5ccccc45)nn23)[C@H](O)[C@@H]1O` [Compound I-110, (s.e.)-((1R,2R,3S,4R)-4-(2-(2-(difluoromethoxy)naphthalen-1-yl)pyrazolo[1,5-a]pyrimidin-7-ylamino)-2,3-dihydroxycyclopentyl)methyl sulfamate], the IC50 at recombinant human UAE (human UAE) was less than 10 nM.

On to `NS(=O)(=O)OC[C@H]1C[C@@H](Nc2ccnc3cc(-c4cccc5cc(C(F)F)ccc45)nn23)[C@H](O)[C@@H]1O` [Compound I-111, (s.e.)-((1R,2R,3S,4R)-4-(2-(6-(difluoromethyl)naphthalen-1-yl)pyrazolo[1,5-a]pyrimidin-7-ylamino)-2,3-dihydroxycyclopentyl)methyl sulfamate], for which the IC50 on recombinant human UAE (human UAE) was less than 10 nM.

For the molecule `NS(=O)(=O)OC[C@H]1C[C@@H](Nc2ccnc3cc(-c4ccc(OC(F)F)c5ccccc45)nn23)[C@H](O)[C@@H]1O` [Compound I-112, (s.e.)-((1R,2R,3S,4R)-4-(2-(4-(difluoromethoxy)naphthalen-1-yl)pyrazolo[1,5-a]pyrimidin-7-ylamino)-2,3-dihydroxycyclopentyl)methyl sulfamate], the half-inhibitory concentration (IC50) at recombinant human UAE (human UAE) is less than 10 nM.

Turning to `NS(=O)(=O)OC[C@H]1C[C@@H](Nc2ccnc3cc(-c4c(Cl)cc(Cl)c5ccccc45)nn23)[C@H](O)[C@@H]1O` [Compound I-117, (s.e.)-((1R,2R,3S,4R)-4-(2-(2,4-dichloronaphthalen-1-yl)pyrazolo[1,5-a]pyrimidin-7-ylamino)-2,3-dihydroxycyclopentyl)methyl sulfamate], the IC50 at recombinant human UAE fell in the range of 10 to 100 nM.

On to `COc1ccc(SC(F)(F)F)cc1-c1cc2nccc(N[C@@H]3C[C@H](COS(N)(=O)=O)[C@@H](O)[C@H]3O)n2n1` [Compound I-120, (s.e.)-((1R,2R,3S,4R)-2,3-dihydroxy-4-(2-(2-methoxy-5-(trifluoromethylthio)-phenyl)pyrazolo[1,5-a]pyrimidin-7-ylamino)cyclopentyl)methyl sulfamate], for which the IC50 on recombinant human UAE (human UAE) was less than 10 nM.

For the molecule `NS(=O)(=O)OC[C@H]1C[C@@H](Nc2c(Cl)cnc3c(Cl)c(-c4cccc(SC(F)(F)F)c4)nn23)[C@H](O)[C@@H]1O` [Compound I-124, (s.e.)-{(1R,2R,3S,4R)-4-[(3,6-dichloro-2-{3-[(trifluoromethyl)sulfanyl]phenyl}pyrazolo[1,5-a]pyrimidin-7-yl)amino]-2,3-dihydroxycyclopentyl}methyl sulfamate], at recombinant human UAE, the IC50 is 100 to 1000 nM.

Turning to `NS(=O)(=O)OC[C@H]1C[C@@H](Nc2c(Cl)cnc3cc(-c4cccc(SC(F)(F)F)c4)nn23)[C@H](O)[C@@H]1O` [Compound I-125, (s.e.)-{(1R,2R,3S,4R)-4-[(6-chloro-2-{3-[(trifluoromethyl)sulfanyl]phenyl}pyrazolo[1,5-a]pyrimidin-7-yl)amino]-2,3-dihydroxycyclopentyl}methyl sulfamate], the IC50 at recombinant human UAE lay in the range of 100 to 1000 nM.
